The source made the active and inactive calls. No cut-off for these calls is given here.
Columns and labels:
Felis catus [1] = test: Inhibition of isoproterenol-induced vasodepressor response in anesthetized cat compound administered as an infusion over a period of 30 mins; assay type: organism-based; conditions: in vivo, iv, 0.5 h
Felis catus [2] = test: Inhibition of isoproterenol-induced tachycardia in anesthetized cat compound administered as an infusion over a period of 30 mins; assay type: functional

| SMILES | inhibition (INH) (Felis catus [1]) [%] | ED50 (Felis catus [2]; 0.5 h) [mg/kg] | ED50 (Felis catus [2]) |
| --- | --- | --- | --- |
| Cc1cccc(OCCNCC(O)COc2ccccc2)c1.Cl (configuration not stated) | 29 | 0.116 | – |
| OC(CNCCOc1ccccc1)COc1ccc(OCc2ccccc2)cc1 (configuration not stated) | – | – | inactive |
| Cl.OC(CNCCOc1cccc2ccccc12)COc1ccccc1 (configuration not stated) | 0 | 0.231 | – |
| COCCNCC(O)COc1ccc(Cl)cc1 (configuration not stated) | – | – | inactive |
| OC(CNCCOc1ccccc1)COc1ccccc1 (configuration not stated) | 0 | 0.054 | – |
| OC(CNCCOc1ccccc1F)COc1ccccc1 (configuration not stated) | 0 | 0.081 | – |
| Cl.OC(CNCCCOc1ccccc1)COc1ccccc1 (configuration not stated) | 0 | 0.239 | – |
| COc1ccc(OCCNCC(O)COc2ccccc2)cc1 (configuration not stated) | 0 | 0.064 | – |
| OC(CNCCOc1ccccc1)COc1ccccc1Br (configuration not stated) | 0 | 0.3 | – |
| CC(CNCC(O)COc1ccccc1)Oc1ccccc1 (configuration not stated) | 0 | 0.051 | – |
| COCCNCC(O)COc1ccc(O)cc1 (configuration not stated) | 0 | 0.118 | – |
| OC(CNCCOc1ccc(Cl)cc1)COc1ccccc1 (configuration not stated) | 0 | 0.08 | – |
| CCOCCCNCC(O)COc1ccccc1 (configuration not stated) | 0 | 0.066 | – |
| Cc1cccc(OCC(O)CNCCOc2ccccc2)c1.Cl (configuration not stated) | 33 | 1.76 | – |
| Cc1ccccc1OCC(O)CNCCOc1ccccc1.Cl (configuration not stated) | 12 | 0.284 | – |
| COCCNCC(O)COc1cccc2ccccc12 (configuration not stated) | – | – | inactive |
| Oc1ccc(OCC(O)CNCCOc2ccccc2)cc1 (configuration not stated) | 78 | 0.031 | – |
| Cl.Oc1ccccc1OCCNCC(O)COc1ccccc1 (configuration not stated) | 0 | 0.022 | – |
| OC(CNCCOc1cccc(Cl)c1)COc1ccccc1 (configuration not stated) | 36 | 0.375 | – |
| COc1ccccc1OCCNCC(O)COc1ccccc1 (configuration not stated) | 0 | 0.063 | – |
| OC(CNCCOc1ccc(F)cc1)COc1ccccc1 (configuration not stated) | 58 | 0.029 | – |
| Cc1ccc(OCCNCC(O)COc2ccccc2)cc1 (configuration not stated) | 0 | 0.179 | – |
| Cc1ccccc1OCCNCC(O)COc1ccccc1 (configuration not stated) | 0 | 0.031 | – |
| OC(CNCCOc1ccc(OCc2ccccc2)cc1)COc1ccccc1 (configuration not stated) | 0 | 0.534 | – |
| Cc1ccc(OCC(O)CNCCOc2ccccc2)cc1 (configuration not stated) | – | – | inactive |

Now from value to compound, other results behind:

| inhibition (INH) (Felis catus [1]) [%] | SMILES | ED50 (Felis catus [2]; 0.5 h) [mg/kg] | ED50 (Felis catus [2]) |
| --- | --- | --- | --- |
| 0 | COCCNCC(O)COc1ccccc1C#N (configuration not stated) | 0.198 | – |
| 38 | O=C(O)C(=O)O.OC(CNCCOc1ccccc1)COc1ccccc1Cl (configuration not stated) | 1.11 | – |
| 15 | COc1ccccc1OCCCNCC(O)COc1ccccc1.O=C(O)C(=O)O (configuration not stated) | 0.721 | – |
| 11 | O=C(O)C(=O)O.OC(CNCCOc1c(Cl)cccc1Cl)COc1ccccc1 (configuration not stated) | 0.402 | – |
| 0 | CCCc1ccccc1OCCNCC(O)COc1ccccc1.O=C(O)C(=O)O (configuration not stated) | 0.833 | – |
| 0 | COc1ccccc1OC(C)CNCC(O)COc1ccccc1.O=C(O)C(=O)O (configuration not stated) | 0.014 | – |
| 10 | CCOCCNCC(O)COc1ccccc1 (configuration not stated) | 0.047 | – |
| 79 | Cc1cccc(Cl)c1OCCNCC(O)COc1ccccc1.O=C(O)C(=O)O (configuration not stated) | 0.09 | – |
| 81 | Cc1ccccc1OCC(O)CNCCOc1ccc(C(N)=O)cc1 (configuration not stated) [TOLAMOLOL] | 0.133 | – |
| 0 | CC(C)OCCNCC(O)COc1ccccc1[N+](=O)[O-].O=C(O)C(=O)O (configuration not stated) | 0.195 | – |
| 0 | COCCNCC(O)COc1ccccc1 (configuration not stated) | 0.13 | – |
| 60 | COc1ccccc1OCCNCC(O)COc1ccccc1OC.O=C(O)C(=O)O (configuration not stated) | 0.539 | – |
| 0 | COc1cccc(OC)c1OCCNCC(O)COc1ccccc1.O=C(O)C(=O)O (configuration not stated) | 2.26 | – |
| 33 | C=CCc1ccccc1OCCNCC(O)COc1ccccc1.O=C(O)C(=O)O (configuration not stated) | 0.75 | – |
| 0 | COc1ccccc1OCC(O)CNCCOc1ccccc1.O=C(O)C(=O)O (configuration not stated) | 0.527 | – |
| 0 | CCOCCCNCC(O)COc1ccccc1[N+](=O)[O-].O=C(O)C(=O)O (configuration not stated) | 0.566 | – |
| 29 | COCCNCC(O)COc1ccccc1[N+](=O)[O-] (configuration not stated) | 0.293 | – |
| 71 | O=C(O)C(=O)O.OC(CNCCOc1ccccc1Cl)COc1ccccc1 (configuration not stated) | 0.821 | – |
